{"source": "patent US4195093A", "about": "“Furoyl- and thenoyl-aryloxyalkyl carboxylic acid derivatives, their preparation and their use in therapy” (Albert Rolland S.A., priority 1977, dated 1980)", "key": {"phenol red in the blood": {"system": "phenol red in the blood", "experiment": "Uricosuric activity: retention of phenol red in the blood of rats", "type": "in vivo", "details": "Rattus norvegicus, read-out: Maximum Ratio measured (phenol red in blood, treated to non-treated)", "method": "The uricosuric activity of the compounds has been shown by the method described by H. C. SCARBOROUGH and G. R. McKINNEY (J. Med. Pharm. Chem. (1962) 5 175) as well as by E. KREPPEL (Med. Exptl. (1959) 1 285); phenol red is administered intravenously to rats and the development of the concentration of this colourant in their blood is studied as a function of time. It is known that rats, which one hour before the beginning of the experiment have received an uricosuric agent, show, in comparison with non-treated animals, retention of phenol red in the blood.\nThe ratio is that of the concentrations of phenol red found in the blood of animals which have received the test compounds at the dose indicated at the specified time to the concentrations for non-treated animals."}, "[1]": {"experiment": "Acute toxicity orally in mice (method of BLISS)", "details": "mouse, in vivo", "method": "The acute toxicity of the new compounds has been studied in mice orally, according to the method of BLISS (Quart. J. Pharm. Pharmacol. (1938) 2 192-216); with the exception of the compounds in Examples 3 and 13, which have an LD50 in the region of 700 mg/kg, all the other compounds have an LD50 above 1000 mg/kg."}, "[2]": {"experiment": "Diuretic ability in mice (urine volume ratio treated/control)", "type": "in vivo", "method": "The diuretic ability of the novel compounds according to the invention has been studied in mice. It is expressed in Table III in the form of a ratio of the volume of urine for the treated animals received during 2 and 4 hours after administration (at the indicated dose) of the test compound to the volume measured under the same conditions for the control animals."}, "[3]": {"experiment": "Solubility in aqueous medium (statement)", "type": "physicochemical"}, "[4]": {"details": "0.75 h, 45 minutes after injection of the colourant"}, "[5]": {"details": "1 h, 60 minutes after injection of the colourant"}, "[6]": {"details": "0.25 h, 15 minutes after injection of the colourant"}}, "note": "Counter-ions that a name gives are not always drawn. Like-named read-outs stand apart in the source and are kept apart here."}
{"smiles": "O=C(O)COc1ccc(C(=O)c2cccs2)c2ccccc12", "note": "[Example 1, [4-(2-Thenoyl)-1-naphthyloxy]-acetic acid]", "values": [{"measurement": "response vs control in vivo at 50 mg/kg", "setting": "phenol red in the blood; [4]", "result": 100, "unit": "%"}, {"measurement": "response vs control in vivo at 100 mg/kg", "setting": "phenol red in the blood; [5]", "result": 121, "unit": "%"}]}
{"smiles": "O=C(O)COc1ccc(C(=NO)c2cccs2)c2ccccc12", "note": "[Example 2, [4-(2-Thienyl-hydroxyiminomethyl)-1-naphthyloxy]-acetic acid]", "values": [{"measurement": "response vs control in vivo at 100 mg/kg", "setting": "phenol red in the blood; [4]", "result": 77, "unit": "%"}]}
{"smiles": "O=C(O)COc1ccc(C(=O)c2ccoc2)c2ccccc12", "note": "[Example 3, [4-(3-Furoyl)-1-naphthlyloxy]-acetic acid]", "values": [{"measurement": "LD50", "setting": "[1]; mice, oral, method of BLISS", "result": "~700", "unit": "mg/kg"}, {"measurement": "Diuretic Ability, 0 to 2 hours (ratio of urine volume treated/control)", "setting": "[2]; 20 mg/kg p.o.", "result": 1.53}, {"measurement": "Diuretic Ability, 0 to 4 hours (ratio of urine volume treated/control)", "setting": "[2]; 20 mg/kg p.o.", "result": 1.31}, {"measurement": "Diuretic Ability, 0 to 2 hours (ratio of urine volume treated/control)", "setting": "[2]; 50 mg/kg p.o.", "result": 1.48}, {"measurement": "Diuretic Ability, 0 to 4 hours (ratio of urine volume treated/control)", "setting": "[2]; 50 mg/kg p.o.", "result": 1.44}]}
{"smiles": "O=C(O)COc1c(Br)cc(C(=O)c2cccs2)c2ccccc12", "note": "[Example 6]", "values": [{"measurement": "response vs control in vivo at 50 mg/kg", "setting": "phenol red in the blood; [5]", "result": 116, "unit": "%"}]}
{"smiles": "Cc1ccc(C(=O)c2ccc(OCC(=O)O)c3ccccc23)s1", "note": "[Example 7]", "values": [{"measurement": "response vs control in vivo at 100 mg/kg", "setting": "phenol red in the blood; [6]", "result": 44, "unit": "%"}, {"measurement": "Diuretic Ability, 0 to 2 hours (ratio of urine volume treated/control)", "setting": "[2]; 50 mg/kg p.o.", "result": 2.01}, {"measurement": "Diuretic Ability, 0 to 4 hours (ratio of urine volume treated/control)", "setting": "[2]; 50 mg/kg p.o.", "result": 1.70}]}
{"smiles": "O=C(O)COc1ccc(C(=O)c2ccsc2)c2ccccc12", "note": "[Example 10]", "values": [{"measurement": "response vs control in vivo at 100 mg/kg", "setting": "phenol red in the blood; 0.5 h, 30 minutes after injection of the colourant", "result": 53, "unit": "%"}, {"measurement": "Diuretic Ability, 0 to 2 hours (ratio of urine volume treated/control)", "setting": "[2]; 200 mg/kg p.o.", "result": 1.38}, {"measurement": "Diuretic Ability, 0 to 4 hours (ratio of urine volume treated/control)", "setting": "[2]; 200 mg/kg p.o.", "result": 1.77}]}
{"smiles": "O=C(O)COc1ccc(C(=O)c2cc3ccccc3o2)c2ccccc12", "note": "[Example 12]", "values": [{"measurement": "response vs control in vivo at 50 mg/kg", "setting": "phenol red in the blood; [6]", "result": 51, "unit": "%"}]}
{"smiles": "O=C(O)CCOc1ccc(C(=O)c2cccs2)c2ccccc12", "note": "[Example 13]", "values": [{"measurement": "LD50", "setting": "[1]; mice, oral, method of BLISS", "result": "~700", "unit": "mg/kg"}]}
{"smiles": "O=C(O)CCOc1ccc(C(=O)c2ccco2)c2ccccc12", "note": "[Example 14]", "values": [{"measurement": "response vs control in vivo at 75 mg/kg", "setting": "phenol red in the blood; 1 h, dose 75 mg/kg, 60 minutes after injection of the colourant", "result": 80, "unit": "%"}]}
{"smiles": "CCc1oc2ccccc2c1C(=O)c1cc(I)c(O)c(I)c1", "note": "[benziodarone, 2-ethyl-3-(4-hydroxy-3,5-diiodobenzoyl)-benzo[b]furane, reference compound]", "values": [{"measurement": "response vs control in vivo at 100 mg/kg", "setting": "phenol red in the blood; [4]", "result": 53, "unit": "%"}, {"measurement": "LD50", "setting": "[1]; po", "result": 1400, "unit": "mg/kg"}]}
{"smiles": "O=C(O)COc1ccc(C(=O)c2cccs2)c2ccccc12", "note": "[tri(hydroxymethyl)methylamine salt]", "values": [{"measurement": "solubility in aqueous medium", "setting": "[3]", "result": "particularly useful because of its solubility in aqueous medium"}]}
